# Measured values from patent publication US11008325B2, “Inhibitors of cancer invasion, attachment, and/or metastasis” (VIRGINIA COMMONWEALTH UNIVERSITY, priority 2016, dated 2021).
# Tests used:
# ARCaPM-Luc cells = experiment: PDZ1i pre-treated ARCaPM-Luc cells injected intravenously; format: in vivo, athymic nude mice
# Method: FIG. 19A-19F. PDZ1i suppresses prostate cancer metastasis and tumor progression. FIG. 19A) Survival data for athymic nude mice in which DMSO or PDZ1i pre-treated ARCaPM cells were injected. FIG. 19B) Survival data for athymic nude mice which were injected with (n=5, each group) ARCaPM-Luc (1×10^6 cells in 100 μl saline) through an intracardiac route. Mice received either vehicle or PDZ1i every alternative day (9 injections during the first three months) and maintained until they needed to be euthanized. FIG. 19C) Survival data for C57BL/6 mice injected through the intracardiac route with RM1-Luc. Vehicle or PDZ1i was administered through intraperitoneal injection every alternate day (total 3 injections during the first week). Survival curves were generated using 6 control vehicle-treated and 5 PDZ1i-treated. Kaplan—Meier survival curves were prepared using Graph Pad software. […] Graphical representation of the average prostate weights from control and treated groups. FIG. 19E and FIG. 19F) Photomicrographs representing the histological changes in prostate sections obtained from 6-month old Hi-Myc mice receiving either vehicle (FIG. 19E) or PDZ1i (FIG. 19F).
# To evaluate potential therapeutic efficacy of PDZ1i four sets of in vivo experiments were conducted. […]
# B16 cells = experiment: B16 experimental lung metastasis; format: in vivo, C57BL/6 mice; conditions: repeated treatment I.P., 30 and 50 mg/kg, 6 injections
# Method: FIG. 57. PDZ1in (113B7) treatment results in marked reduction of B16 experimental lung metastases. C57BU6 mice were inoculated I.V. with B16 cells ([…]) to generate experimental lung metastases. One day after I.V. injection, mice received 30 and 50 mg/kg b.w. PDZ1i I.P. 3× a week for the first two weeks (total 6 injections). After 21 days, mice were sacrificed and lungs were collected, fixed with formalin and examined for nodules. Representative lungs with tumor metastases are shown.
# Preliminary studies were performed to determine if administering PDZ1ln (113B7) would affect experimental metastasis. B16, a highly aggressive metastatic mouse melanoma, was intravenously injected resulting in lung nodules within 3 weeks. […] This experiment confirms that treatment with PDZ1in targeting MDA-9/Syntenin can directly prevent formation of lung metastases in vivo.
# [1] = system: RWPE-1 cells overexpressing mda-9; experiment: modified Boyden Chamber invasion assay; format: cell-based, human
# Method: FIGS. 17A-17H. Effect of PDZ1i on invasion, MDA-9/IGF-R1 interaction and IGF-R1, STAT3 and SRC phosphorylation. FIG. 17A) Different cancer cells (25,000 cells/well) from various anatomic origins were pre-treated with either DMSO (vehicle) or PDZ1i (dose as indicated) and invasion ability was assayed using modified Boyden Chamber according to the manufacturer's instructions. Photomicrographs were taken at 10× magnification and quantification of the results of three independent experiments is provided in the graphs. The data presents mean±S.D. B) The designated cells were treated with DMSO or PDZ1i and invasion properties were determined using a modified Boyden Chamber assay (BD bioscience). RWPE-1 mda-9: mda-9 transiently overexpressing cell line. […] FIG. 17E) Cells were growth starved for 24 h and treated with either DMSO or PDZ1i (dose indicated in μM) for 6 h. Cells were treated with human recombinant IGFBP-2 (hIGFBP-2, 10 ng/ml) for 2 h, lysates were prepared and western blot analysis was conducted with specific antibodies. […] Cells were treated with human recombinant IL-6 (hIGFBP-2, 1 ng/ml) for 2 h, cell lysates were prepared and analyzed by western blotting. […]
# Boyden chamber assays were done to investigate the invasive properties of cancer cells^26, 27. […] After 18 h, invasive cells were photographed and analyzed.
# cancer cells = experiment: toxicity to cultured cells; format: cell-based, human
smiles,measurement,setting,value
"Cc1cc(NC(=O)c2nc3[nH]c4c(c(=O)n3n2)CCC4)c(C)cc1NC(=O)CCc1nnc(-c2ccccc2)o1 [113B7, N-(2,5-dimethyl-4-(3-(5-phenyl-1,3,4-oxadiazol-2-yl)propanamido)phenyl)-8-oxo-5,6,7,8-tetrahydro-4H-cyclopenta[d][1,2,4]triazolo[1,5-a]pyrimidine-2-carboxamide]",cancer cell concentrations in the lungs,ARCaPM-Luc cells; cells pre-treated with 50 μM PDZ1i,lower cancer cell concentrations in the lungs
same,survival,ARCaPM-Luc cells; cells pre-treated with PDZ1i,survived longer
same,number of lung nodules,B16 cells,significantly reduced the number of lung nodules
same,mda-9-mediated invasion,[1],significantly attenuated
same,toxicity to primary normal cells and cancer cells,cancer cells,non-toxic
same,toxicity,cancer cells; tested at 50 μM,did not show any toxicity
same,cytotoxicity,cancer cells; tested up to 20 μM,did not show any significant cytotoxicity
